In patent US20160158200A1, “Combinations of Hepatitis C Virus Inhibitors” (priority 2013, published 2016):

System: HCV genotype-1a variant with glutamine 30 changed to glutamate in the NS5A protein
Type: cell-based
Settings: test compound titrated with BMS-790052 fixed at 200 nM; genotype 1a Q30E replicon
How it was run: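 Synergy was assessed by combining several fixed amounts of an NS5A-targeting compound with a titration of the second compound of interest.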

Row | SMILES | Fold-Synergistic 1a (Q30E)
1 | CC1(C)CCN(C(=O)C(=O)c2ccccc2)C1c1nc(-c2ccc(-c3ccc(-c4c[nH]c(C5N(C(=O)C(=O)c6ccccc6)CCC5(C)C)n4)cc3)cc2)c[nH]1 (stereo not drawn) [Compound W-224] | >10 fold
2 | CC(C)N(C(=O)C(=O)N[C@H](c1nc(-c2ccc(-c3ccc(-c4c[nH]c([C@@H](NC(=O)C(=O)N(C(C)C)C5CC5)C(C)(C)C)n4)cc3)cc2)c[nH]1)C(C)(C)C)C1CC1 [Compound W-49] | >100 fold
3 | COC(=O)N(C)C(C)(C)C(=O)N[C@H](c1nc(-c2ccc(-c3ccc(-c4c[nH]c([C@@H](NC(=O)C(C)(C)N(C)C(=O)OC)C(C)(C)C)n4)cc3)cc2)c[nH]1)C(C)(C)C [Compound L-18] | >100 fold
4 | COC(C)(C)C(=O)N[C@H](c1nc(-c2ccc(-c3ccc(-c4c[nH]c([C@@H](NC(=O)C(C)(C)OC)C(C)C)n4)cn3)cc2)c[nH]1)C(C)C.O=C(O)C(F)(F)F [Compound N-102] | >100 fold
5 | CC(O)C1(C(=O)N[C@H](c2ncc(-c3ccc(-c4ccc(-c5cnc([C@@H](NC(=O)C6(C(C)O)CC6)C(C)(C)C)[nH]5)cc4)cc3)[nH]2)C(C)(C)C)CC1 (single isomer, unassigned) [Compound B74] | >100 fold
6 | CC(C)[C@H](NC(=O)[C@@]1(C)CCC(F)(F)CO1)c1nc(-c2ccc(-c3ccc(-c4c[nH]c([C@@H](NC(=O)[C@@]5(C)CCC(F)(F)CO5)C(C)C)n4)cn3)cc2)c[nH]1 [Compound N-134] | >100 fold
7 | CC(C)[C@H](NC(=O)C(C)(C)F)c1ncc(-c2ccc(-c3ccc(-c4cnc([C@@H](NC(=O)C(C)(C)F)C(C)C)[nH]4)cc3)cc2)[nH]1 [Compound P-99] | >100 fold
8 | CC(C)[C@H](NC(=O)N(C(C)C)C(C)C)c1nc(-c2ccc(-c3ccc(-c4c[nH]c([C@@H](NC(=O)N(C(C)C)C(C)C)C(C)C)n4)cc3)cc2)c[nH]1 [Compound S-230] | >100 fold
9 | CO[C@H](C)[C@H](NC(=O)[C@@]1(C)CCC(F)(F)CO1)c1nc(-c2ccc(-c3ccc(-c4c[nH]c([C@@H](NC(=O)[C@@]5(C)CCC(F)(F)CO5)[C@@H](C)OC)n4)cc3)cc2)c[nH]1 [Compound L-97] | >100 fold
10 | CC(C)(C)OC(=O)N1C(C(=O)NC(c2nc(-c3ccc(-c4ccc(-c5c[nH]c(C(NC(=O)C6COC(C)(C)N6C(=O)OC(C)(C)C)C(C)(C)C)n5)cc4)cc3)c[nH]2)C(C)(C)C)COC1(C)C [Compound L-55] | >100 fold
11 | CCCOC(=O)N1CCC[C@H]1c1ncc(-c2ccc(-c3ccc(-c4cnc([C@@H]5CCCN5C(=O)OCCC)[nH]4)cc3)cc2)[nH]1 [Compound S-218] | >10 fold
12 | CC(C)[C@H](NC(=O)C(C)(C)O)c1ncc(-c2ccc(-c3ccc(-c4cnc([C@@H](NC(=O)C(C)(C)O)C(C)C)[nH]4)cc3)cc2)[nH]1 [Compound P-71] | >100 fold
13 | CC(C)(C)[C@H](NC(=O)c1ncccc1F)c1nc(-c2ccc(-c3ccc(-c4c[nH]c([C@@H](NC(=O)c5ncccc5F)C(C)(C)C)n4)cc3)cc2)c[nH]1 [Compound P-22] | >100 fold
14 | CC(C)[C@H](NC(=O)C1CC(=O)C1)c1nc(-c2ccc(-c3ccc(-c4c[nH]c([C@@H](NC(=O)C5CC(=O)C5)C(C)C)n4)cc3)cc2)c[nH]1 [Compound W-172] | >10 fold
15 | CC(C)(F)C(=O)N[C@H](c1nc(-c2ccc(-c3ccc(-c4c[nH]c([C@@H](NC(=O)C(C)(C)F)C(C)(C)C)n4)cc3)cc2)c[nH]1)C(C)(C)C [Compound N-115] | >100 fold
16 | CC(C)(CC(F)(F)F)C(=O)N[C@H](c1nc(-c2ccc(-c3ccc(-c4c[nH]c([C@@H](NC(=O)C(C)(C)CC(F)(F)F)C(C)(C)C)n4)cc3)cc2)c[nH]1)C(C)(C)C [Compound Y-8] | >100 fold
17 | CC(C)[C@H](NC(=O)Cc1ncccn1)c1ncc(-c2ccc(-c3ccc(-c4cnc([C@@H](NC(=O)Cc5ncccn5)C(C)C)[nH]4)cc3)cc2)[nH]1 [Compound P-95] | >10 fold
18 | CC1([C@H](NC(=O)C2CCC(F)(F)CC2)c2ncc(-c3ccc(-c4ccc(-c5cnc([C@@H](NC(=O)C6CCC(F)(F)CC6)C6(C)CCC6)[nH]5)cc4)cc3)[nH]2)CCC1 [Compound Y-38] | >100 fold
19 | CC(C)(C)OC(=O)N1CC(F)(F)CC1(C)C(=O)N[C@H](c1nc(-c2ccc(-c3ccc(-c4c[nH]c([C@@H](NC(=O)C5(C)CC(F)(F)CN5C(=O)OC(C)(C)C)C(C)(C)C)n4)cc3)cc2)c[nH]1)C(C)(C)C (single isomer, unassigned) [Compound W-78] | >100 fold
20 | CC(C)(C(=O)N[C@H](c1nc(-c2ccc(-c3ccc(-c4c[nH]c([C@@H](NC(=O)C(C)(C)C5CCC(F)(F)CC5)C(C)(C)C)n4)cc3)cc2)c[nH]1)C(C)(C)C)C1CCC(F)(F)CC1 [Compound P-150] | >100 fold

Row | SMILES | Fold-Synergistic 1a (Q30E)
21 | CC(C)(C)[C@H](NS(=O)(=O)C1(C)CC1)c1nc(-c2ccc(-c3ccc(-c4c[nH]c([C@@H](NS(=O)(=O)C5(C)CC5)C(C)(C)C)n4)cc3)cc2)c[nH]1 [Compound L-120] | >100 fold
22 | COC(=O)NC(C(=O)N1CCCC1c1ncc(-c2ccc(-c3ccc(-c4cnc(C(NC(=O)C(C)(C)C)C(C)(C)C)[nH]4)cc3)cc2)[nH]1)C(C)C (stereo not drawn) [Compound B-195] | >10 fold
23 | CC(C)(C)[C@H](NC(=O)[C@@]1(C)CCC(F)(F)CO1)c1ncc(-c2ccc(-c3ncc(-c4cnc([C@@H](NC(=O)[C@@]5(C)CCC(F)(F)CO5)C(C)(C)C)[nH]4)cn3)cc2)[nH]1 [Compound Y-84, (R)—N—((S)-1-(5-(2-(4-(2-((S)-1-((R)-5,5-difluoro-2-methyltetrahydro-2H-pyran-2-carboxamido)-2,2-dimethylpropyl)-1H-imidazol-5-yl)phenyl)pyrimidin-5-yl)-1H-imidazol-2-yl)-2,2-dimethylpropyl)-5,5-difluoro-2-methyltetrahydro-2H-pyran-2-carboxamide] | >100 fold
24 | CC(C)(C)[C@H](Nc1ncc(Br)cn1)c1nc(-c2ccc(-c3ccc(-c4c[nH]c([C@@H](Nc5ncc(Br)cn5)C(C)(C)C)n4)cc3)cc2)c[nH]1 [Compound W-16A] | >10 fold
25 | COC(=O)NC(C(=O)N1CCCC1c1ncc(-c2ccc(-c3ccc(-c4cnc(C(NC(=O)C5CCC(F)(F)CC5)C(C)(C)C)[nH]4)cc3)cc2)[nH]1)C(C)C (stereo not drawn) [Compound B-192] | >10 fold
26 | CC(C)[C@H](NC(=O)Cc1noc2ccccc12)c1ncc(-c2ccc(-c3ccc(-c4cnc([C@@H](NC(=O)Cc5noc6ccccc56)C(C)C)[nH]4)cc3)cc2)[nH]1 [Compound P-77] | >100 fold
27 | CC(C)[C@H](NC(=O)CC1CCCCC1)c1ncc(-c2ccc(-c3ccc(-c4cnc([C@@H](NC(=O)CC5CCCCC5)C(C)C)[nH]4)cc3)cc2)[nH]1 [Compound S-26] | >100 fold
28 | CC(C)(OCC(F)F)C(=O)N[C@H](c1nc(-c2ccc(-c3ccc(-c4c[nH]c([C@@H](NC(=O)C(C)(C)OCC(F)F)C(C)(C)C)n4)cc3)cc2)c[nH]1)C(C)(C)C [Compound N-116] | <10 fold
29 | CO[C@H](C)[C@H](NC(=O)C1CCC(F)(F)CC1)c1nc(-c2ccc(-c3ccc(-c4c[nH]c([C@@H](NC(=O)C5CCC(F)(F)CC5)[C@@H](C)OC)n4)cc3)cc2)c[nH]1 [Compound L-98] | <10 fold
30 | CC(C)(C)C(=O)N[C@H](c1nc(-c2ccc(-c3ccc(-c4c[nH]c([C@@H](NC(=O)C(C)(C)C)C(C)(C)CO)n4)cc3)cc2)c[nH]1)C(C)(C)CO [Compound N-110] | >100 fold
31 | CC1(C(=O)N[C@H](c2nc(-c3ccc(-c4ccc(-c5c[nH]c([C@@H](NC(=O)C6(C)CC(F)(F)CN6)C(C)(C)C)n5)cc4)cc3)c[nH]2)C(C)(C)C)CC(F)(F)CN1 (mixture of isomers) [Compound W-80] | >100 fold
32 | CCN(CC(F)(F)F)C(=O)C(=O)NC(c1nc(-c2ccc(-c3ccc(-c4c[nH]c(C(NC(=O)C(=O)N(CC)CC(F)(F)F)C(C)C)n4)cc3)cc2)c[nH]1)C(C)C (stereo not drawn) [Compound W-56] | >100 fold
33 | CC1(C(=O)N[C@H](c2nc(-c3ccc(-c4ccc(-c5c[nH]c([C@@H](NC(=O)C6(C)CCCCC6O)C(C)(C)C)n5)cc4)cc3)c[nH]2)C(C)(C)C)CCCCC1O (single isomer, unassigned) [Compound Y-105] | >100 fold
34 | CC(C)[C@H](NC(=O)C(C)(C)C(O)C1CC(F)(F)C1)c1nc(-c2ccc(-c3ccc(-c4c[nH]c([C@@H](NC(=O)C(C)(C)C(O)C5CC(F)(F)C5)C(C)C)n4)cc3)cc2)c[nH]1 (single isomer, unassigned) [Compound N-145B] | >100 fold
35 | CC(C)(C)[C@H](NC(=O)C1(CO)CCC(F)(F)CC1)c1nc(-c2ccc(-c3ccc(-c4c[nH]c([C@@H](NC(=O)C5(CO)CCC(F)(F)CC5)C(C)(C)C)n4)cc3)cc2)c[nH]1 [Compound P-37] | >100 fold
36 | CN(C)C(=O)C(=O)N[C@H](c1nc(-c2ccc(-c3ccc(-c4c[nH]c([C@@H](NC(=O)C(=O)N(C)C)C(C)(C)C)n4)cc3)cc2)c[nH]1)C(C)(C)C [Compound W-10] | >100 fold
37 | CC(C)(C)C(NC(=O)C1COCCN1CC(F)(F)F)c1nc(-c2ccc(-c3ccc(-c4c[nH]c(C(NC(=O)C5COCCN5CC(F)(F)F)C(C)(C)C)n4)cc3)cc2)c[nH]1 [Compound L-68] | >100 fold
38 | Cc1c(F)cccc1C(=O)N[C@H](c1ncc(-c2ccc(-c3ccc(-c4cnc([C@@H](NC(=O)c5cccc(F)c5C)C(C)C)[nH]4)cc3)cc2)[nH]1)C(C)C [Compound S-97] | >100 fold
39 | CC(C)(C)[C@H](NC(=O)CS(C)(=O)=O)c1nc(-c2ccc(-c3ccc(-c4cnc([C@@H](NC(=O)CS(C)(=O)=O)C(C)(C)C)[nH]4)cc3)cc2)c[nH]1 [Compound B-181] | >10 fold
